Values quoted from earlier work, collected in US20080089844A1 (priority 2002, published 2008).

Biological target: F425G Shaker mutation (Drosophila melanogaster, UniProt P08510, F425G)
Conditions: cited from earlier work

F425G Shaker mutation, sequence (P08510 whole entry F425G, looked up): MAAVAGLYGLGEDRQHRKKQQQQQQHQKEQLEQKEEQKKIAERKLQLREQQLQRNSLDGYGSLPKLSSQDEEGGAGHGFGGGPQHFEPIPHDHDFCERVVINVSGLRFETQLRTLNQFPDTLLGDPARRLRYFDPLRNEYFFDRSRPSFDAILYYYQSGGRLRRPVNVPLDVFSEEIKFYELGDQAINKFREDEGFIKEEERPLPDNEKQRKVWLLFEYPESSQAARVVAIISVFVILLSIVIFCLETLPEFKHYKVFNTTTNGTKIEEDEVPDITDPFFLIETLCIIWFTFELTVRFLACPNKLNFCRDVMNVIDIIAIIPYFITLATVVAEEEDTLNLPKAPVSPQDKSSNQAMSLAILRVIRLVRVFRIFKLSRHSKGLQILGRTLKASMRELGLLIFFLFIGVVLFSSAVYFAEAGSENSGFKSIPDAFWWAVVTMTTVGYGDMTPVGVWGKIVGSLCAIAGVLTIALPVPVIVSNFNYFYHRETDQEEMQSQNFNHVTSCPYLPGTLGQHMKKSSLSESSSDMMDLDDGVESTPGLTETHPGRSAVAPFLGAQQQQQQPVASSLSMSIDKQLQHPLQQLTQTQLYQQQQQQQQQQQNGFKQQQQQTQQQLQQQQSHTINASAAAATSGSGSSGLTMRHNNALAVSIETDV

charybdotoxin [reference compound]
effect of F425G Shaker mutation on charybdotoxin affinity: increases charybdotoxin affinity by three orders of magnitude
